Tests used:
H358 cells = assay: Antiproliferative activity against H358 cells (Cell Titer Glow, ultra-low attachment plate); format: cell-based; settings: Homo sapiens, NCI-H358, 72 h, 96-well ultra-low attachment plate, three days after addition of compound, Cell Titer Glow
Description: 2500 H358 cells were seeded in a 96-well ultra-low attachment plate (corning, 7007). After one day of growth, a serially diluted compound (a maximum concentration of 5 μM, 5-fold dilution, a total of five doses) was added. Three days after the addition of the compound, Cell Titer Glow (Promega, G9681) was added to evaluate pellet growth, and the IC50 value was calculated.

pERK level in H358 cells = assay: pERK and ERK protein content assay in H358 cells (ELISA); format: cell-based; settings: Homo sapiens, NCI-H358, compound 1 μM, 24 h, pERK/ERK ratio compared with DMSO group, read-out: Inhibition rate (%) of pERK level
Outline: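 Percent inhibition of pERK relative to DMSO, from the ELISA pERK/ERK ratio in lysed H358 cells. Compound applied at 1 μM for 24 h after one day of growth.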

Row | SMILES | IC50 (H358 cells) [nM] | inhibition at 1 µM (pERK level in H358 cells) [%]
1 | C=CC(=O)N1CC2(CCN(c3nc(N4CC[C@H](N5CCC(OC)CC5)C4)nc4c(OCC(F)(F)F)c(-c5c(C)ccc6[nH]ncc56)c(C5CC5)cc34)CC2)C1 [Compound 213] | 300 to 1000 | 50 to 90
2 | C=CC(=O)N1CC2(CCN(c3nc(N4CC[C@@H](N5CCC(OC)CC5)C4)nc4c(OCC(F)(F)F)c(-c5c(C)ccc6[nH]ncc56)c(C5CC5)cc34)CC2)C1 [Compound 214] | 300 to 1000 | 50 to 90
3 | C=CC(=O)N1CC2(CCN(c3nc(N4CCC(N5CCC5)CC4)nc4c(OCC(F)(F)F)c(-c5c(C)ccc6[nH]ncc56)c(C5CC5)cc34)CC2)C1 [Compound 215] | < 300 | > 90
4 | C=CC(=O)N1CC2(CCN(c3nc(N4CCC(N5CCCC5)CC4)nc4c(OCC(F)(F)F)c(-c5c(C)ccc6[nH]ncc56)c(C5CC5)cc34)CC2)C1 [Compound 216] | < 300 | > 90
5 | C=CC(=O)N1CC2(CCN(c3nc(N4CC(N5CCC5)C4)nc4c(OCC(F)(F)F)c(-c5c(C)c(C)cc6[nH]ncc56)c(C5CC5)cc34)CC2)C1 [Compound 217] | < 300 | > 90
6 | C=CC(=O)N1CC2(CCN(c3nc(N4CC(N5CCCC5)C4)nc4c(OCC(F)(F)F)c(-c5c(C)c(C)cc6[nH]ncc56)c(C5CC5)cc34)CC2)C1 [Compound 218] | < 300 | > 90
7 | C=CC(=O)N1CC2(CCN(c3nc(N4CC(N5CCC5)C4)nc4c(OCC(F)(F)F)c(-c5c(C)c(F)cc6[nH]ncc56)c(C5CC5)cc34)CC2)C1 [Compound 219] | < 300 | > 90
8 | C=CC(=O)N1CC2(CCN(c3nc(N4CC(N5CCCC5)C4)nc4c(OCC(F)(F)F)c(-c5c(C)c(F)cc6[nH]ncc56)c(C5CC5)cc34)CC2)C1 [Compound 220] | < 300 | > 90
9 | C=CC(=O)N1CC2(CCN(c3nc(N4CC(N5CCC5)C4)nc4c(OCC(F)(F)F)c(-c5c(C)c(C)cc6[nH]ncc56)c(C=C)cc34)CC2)C1 [Compound 221] | < 300 | > 90
10 | C=CC(=O)N1CC2(CCN(c3nc(N4CC(N5CCCC5)C4)nc4c(OCC(F)(F)F)c(-c5c(C)c(C)cc6[nH]ncc56)c(C=C)cc34)CC2)C1 [Compound 222] | < 300 | > 90
11 | C=CC(=O)N1CC2(CCN(c3nc(N4CC(N5CCC5)C4)nc4c(OCC(F)(F)F)c(-c5c(C)c(F)cc6[nH]ncc56)c(C=C)cc34)CC2)C1 [Compound 223] | < 300 | > 90
12 | C=CC(=O)N1CC2(CCN(c3nc(N4CC(N5CCCC5)C4)nc4c(OCC(F)(F)F)c(-c5c(C)c(F)cc6[nH]ncc56)c(C=C)cc34)CC2)C1 [Compound 224] | < 300 | > 90
13 | C=CC(=O)N1CC2(CCN(c3nc(N(C)CCN(C)C)nc4c(OCC(F)(F)F)c(-c5c(C)ccc6[nH]ncc56)c(C5CC5)cc34)CC2)C1 [Compound 225] | < 300 | > 90
14 | C=CC(=O)N1CC2(CCN(c3nc(N(C)CCN4CCC4)nc4c(OCC(F)(F)F)c(-c5c(C)ccc6[nH]ncc56)c(C5CC5)cc34)CC2)C1 [Compound 226] | < 300 | > 90
15 | C=CC(=O)N1CC2(CCN(c3nc(N(C)CCN4CC(C)C4)nc4c(OCC(F)(F)F)c(-c5c(C)ccc6[nH]ncc56)c(C5CC5)cc34)CC2)C1 [Compound 227] | < 300 | > 90
16 | C=CC(=O)N1CC2(CCN(c3nc(N(C)CCN4CC(F)C4)nc4c(OCC(F)(F)F)c(-c5c(C)ccc6[nH]ncc56)c(C5CC5)cc34)CC2)C1 [Compound 228] | < 300 | > 90
17 | C=CC(=O)N1CC2(CCN(c3nc(N(C)CCN4CC(O)C4)nc4c(OCC(F)(F)F)c(-c5c(C)ccc6[nH]ncc56)c(C5CC5)cc34)CC2)C1 [Compound 229] | < 300 | > 90
18 | C=CC(=O)N1CC2(CCN(c3nc(N(C)CCN4CC(OC)C4)nc4c(OCC(F)(F)F)c(-c5c(C)ccc6[nH]ncc56)c(C5CC5)cc34)CC2)C1 [Compound 230] | 300 to 1000 | 50 to 90

From patent US12479843B2, “Spiro ring-containing quinazoline compounds” (WIGEN BIOMEDICINE TECHNOLOGY (SHANGHAI) CO., LTD., priority 2019, dated 2025)
